Source: article PMC8151276, “An Integrated Approach toward NanoBRET Tracers for Analysis of GPCR Ligand Engagement” (Molecules, 2021)

Assays:
Format in all cases: binding
[1] = target: T1, ADRA2C (Homo sapiens, UniProt P18825); test: NanoBRET screen HiBiT-ADRA2C in HEK293
T1 construct: purchased Promega (in-house HiBiT-GPCR construct library, NanoBRET)
T1 sequence (P18825 1-462): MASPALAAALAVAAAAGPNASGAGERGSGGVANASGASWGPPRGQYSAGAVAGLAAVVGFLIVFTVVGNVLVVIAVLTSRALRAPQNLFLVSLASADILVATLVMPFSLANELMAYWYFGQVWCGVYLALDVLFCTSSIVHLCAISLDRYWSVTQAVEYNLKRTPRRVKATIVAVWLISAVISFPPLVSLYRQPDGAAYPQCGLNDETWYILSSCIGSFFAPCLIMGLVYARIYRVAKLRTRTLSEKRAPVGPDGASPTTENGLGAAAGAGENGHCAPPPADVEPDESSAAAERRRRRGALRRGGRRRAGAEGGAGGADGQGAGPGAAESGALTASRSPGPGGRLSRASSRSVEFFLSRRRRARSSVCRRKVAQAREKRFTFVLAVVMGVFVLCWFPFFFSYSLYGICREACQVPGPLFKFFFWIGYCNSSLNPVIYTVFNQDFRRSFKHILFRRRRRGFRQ
Experimental: (§1) Each tracer candidate was screened across the entire library of HiBiT-GPCR constructs using NanoBRET as the detection modality. As depicted in Figure 4A, the specificity of interactions was evaluated through decrease in BRET due to competitive displacement of a bound tracer by excess parental compound. Each tracer was analyzed for binding to each HiBiT-GPCR fusion in the absence and in the presence of competing parental compound. Briefly, HEK293 cells were transfected with HiBiT-GPCR constructs diluted into promoterless DNA to reduce expression and maximize translocation to the cell surface. Each tracer candidate was then screened at concentrations of 1 μM and 0.1 μM across cells expressing these fusions. Cells were treated for 1.5 h with tracer either alone or in the presence of 20 μM competing parental compound (i.e., control). BRET was measured upon addition of purified LgBiT and subsequent complementation with HiBiT genetically fused to a GPCR. The specificity of interactions was assessed through a decrease in BRET signal due to competitive displacement of the bound tracer. To further gauge the robustness of these interactions, the fold response over the control (i.e., BRETtracer/BRETcontrol) was calculated. We chose a 1.5-fold response, which translates to ≥7-fold signal over noise as the minimal threshold required to score an interaction as positive. […]. Below we highlight the screening results obtained for our exemplary fluorescent tracers based on Clozapine, Amitriptyline and AZD1283.
(§2) HiBiT-GPCR DNA constructs were diluted in 10 mM Tris pH 8 to a final concentration of 0.01 μg/μL, arrayed in 96-well plates and stored at −20 °C. For transfection, HEK293 cells were suspended in Opti-MEM (without phenol red) supplemented with 2% fetal bovine serum (Seradigm) and 100 units/mL penicillin–streptomycin (Gibco) at a final concentration of 220,000 cells/mL and dispensed into white 96-well plates at 90 μL/well. Subsequent transfections and screens were carried using an Agilent Bravo Automated Liquid Handling Platform. First, the 96-well HiBiT DNA arrays were diluted 25-fold in Opti-MEM (without serum or phenol red) to a final concentration of 0.0004 μg/μL and 20 μL of the diluted DNAs were transferred into new 96-well plates. Next, promoterless carrier DNA (1 μg/μL) was diluted 25-fold (0.04 μg/μL) and then dispensed into the diluted arrays at 20 μL/well. Following brief mixing, Viafect transfection reagent (Promega) diluted 16-fold into Opti-MEM was dispensed into the plates at 40 μL/well. After mixing by pipetting, plates were incubated for 10 min on the pipetting station deck. The DNA-transfection reagent complexes were then added to plates containing cells. To facilitate the screen, 10 μL of DNA-transfection reagent complexes were added in duplicates to the top 4 and bottom 4 rows, resulting in two identical 48-well arrays per plate. Plates with transfected cells were incubated for 18–20 h at 37 °C/5% CO2. A screen of each tracer across the entire library using two different concentrations requires duplicate plates of transfected cells. Depending on the number of tracers being screened, transfections can be scaled up using the same ratios. The next day, for each tracer, four 20× screening solutions in tracer dilution buffer (Promega) were prepared: two duplicates at final concentration of 20 μM and two duplicates at a final concentration of 2 μM. A competing unmodified compound was added to one of each duplicate at a final concentration of 400 μM. The four resulting solutions were diluted 4-fold in Opti-MEM without serum or phenol red to generate 5× solutions (5 µM and 0.5 µM tracer +/− 100 μM competing compound). To screen the library, a BioTek MultiFlo FX liquid dispenser was used to dispense 22.5 µL of tracer solution to the top 4 rows and 22.5 µL tracer + competing compound solution to the 4 bottom rows. Plates were briefly mixed on an orbital shaker and incubated for 1.5 h at room temperature. […]

[2] = target: T2, CXCR2 (Homo sapiens, UniProt P25025); test: NanoBRET screen HiBiT-CXCR2 in HEK293
T2 construct: purchased Promega (in-house HiBiT-GPCR construct library, NanoBRET)
T2 sequence (P25025 1-360): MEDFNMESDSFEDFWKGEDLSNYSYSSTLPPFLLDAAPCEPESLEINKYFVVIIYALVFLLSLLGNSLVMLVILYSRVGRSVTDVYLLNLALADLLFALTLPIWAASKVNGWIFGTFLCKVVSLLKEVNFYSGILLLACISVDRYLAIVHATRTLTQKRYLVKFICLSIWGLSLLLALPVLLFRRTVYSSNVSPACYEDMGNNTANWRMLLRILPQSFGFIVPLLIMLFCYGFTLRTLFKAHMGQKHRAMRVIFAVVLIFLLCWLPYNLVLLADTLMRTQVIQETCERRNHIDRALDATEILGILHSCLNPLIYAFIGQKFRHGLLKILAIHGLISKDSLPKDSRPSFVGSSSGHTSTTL
Experimental: as §1, §2

[3] = target: T3, P2RY2 (Homo sapiens, UniProt P41231); test: NanoBRET screen HiBiT-P2RY2 in HEK293
T3 construct: purchased Promega (in-house HiBiT-GPCR construct library, NanoBRET)
Experimental: as §1, §2

T3 sequence (P41231 whole entry): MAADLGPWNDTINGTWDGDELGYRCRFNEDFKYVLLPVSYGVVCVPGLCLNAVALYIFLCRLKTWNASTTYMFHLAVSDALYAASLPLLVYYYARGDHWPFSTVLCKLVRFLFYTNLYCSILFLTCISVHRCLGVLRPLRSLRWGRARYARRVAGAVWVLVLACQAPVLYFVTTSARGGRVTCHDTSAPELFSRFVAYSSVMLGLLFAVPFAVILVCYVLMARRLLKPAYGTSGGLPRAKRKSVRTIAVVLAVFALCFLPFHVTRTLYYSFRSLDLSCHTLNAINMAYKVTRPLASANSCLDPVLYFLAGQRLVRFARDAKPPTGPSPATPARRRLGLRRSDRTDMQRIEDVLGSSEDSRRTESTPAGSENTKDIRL

SMILES	NanoBRET Fold Response ([1]; ADRA2C, 0.1μM tracer)	NanoBRET Fold Response ([1]; ADRA2C, 1μM tracer)	NanoBRET Fold Response ([2]; CXCR2, 0.1μM tracer)	NanoBRET Fold Response ([2]; CXCR2, 1μM tracer)	NanoBRET Fold Response ([3]; P2RY2, 0.1μM tracer)	NanoBRET Fold Response ([3]; P2RY2, 1μM tracer)	NanoBRET Fold Response ([1]; ADRA2C, tracer 0.1μM)	NanoBRET Fold Response ([1]; ADRA2C, tracer 1μM)	NanoBRET Fold Response ([2]; CXCR2, tracer 0.1μM)	NanoBRET Fold Response ([2]; CXCR2, tracer 1μM)	other results
COc1ccc2[nH]c(-c3ccc(CNC(=O)CCOCCOCCOCCOCCNC(=O)CCc4ccc5n4[B-](F)(F)[N+]4=C(c6ccc[nH]6)C=CC4=C5)cc3)c(CCNC(C)=O)c2n1 [AzomelatoninICO9-2-NB590]											NanoBRET Fold Response ([1]; 0.1μM tracer): 1.08; NanoBRET Fold Response ([1]; 1μM tracer): 1.17; NanoBRET Fold Response ([2]; 0.1μM tracer): 1.38; NanoBRET Fold Response ([2]; 1μM tracer): 1.00; NanoBRET Fold Response ([3]; 0.1μM tracer): 1.06; NanoBRET Fold Response ([3]; 1μM tracer): 1.09
O=C(CCOCCOCCOCCOCCNC(=O)CCc1ccc2n1[B-](F)(F)[N+]1=C(c3ccc[nH]3)C=CC1=C2)NCCCN1CCN(C2=Nc3cc(Cl)ccc3Nc3ccccc32)CC1 [Clozapine-a-2-NB590]	1.80	1.62	1.02	0.87	1.12	0.97					
CN1CCN(C2=Nc3cc(Cl)ccc3Nc3ccc(CNC(=O)CCOCCOCCOCCOCCNC(=O)CCc4ccc5n4[B-](F)(F)[N+]4=C(c6ccc[nH]6)C=CC4=C5)cc32)CC1 [Clozapine-b-2-NB590]	1.25	1.67	0.98	1.06	0.96	1.00					
CN1CCN(C2=Nc3cc(Cl)ccc3N(CC(=O)NCCOCCOCCOCCOCCNC(=O)CCc3ccc4n3[B-](F)(F)[N+]3=C(c5ccc[nH]5)C=CC3=C4)c3ccccc32)CC1 [Clozapine-c-2-NB590]	1.05	1.49	1.03	0.92	0.99	0.84					
O=C(CCOCCOCCOCCOCCNC(=O)CCc1ccc2n1[B-](F)(F)[N+]1=C(c3ccc[nH]3)C=CC1=C2)NCCCN1CCN(C2=Nc3ccccc3Oc3ccc(Cl)cc32)CC1 [Loxapine-a-2-NB590]							1.13	1.54	1.06	0.98	NanoBRET Fold Response ([3]; P2RY2, tracer 0.1μM): 0.99; NanoBRET Fold Response ([3]; P2RY2, tracer 1μM): 1.05
COc1ccccc1N1CCN(CCCCN2C(=O)c3ccc(CNC(=O)CCOCCOCCOCCOCCNC(=O)CCc4ccc5n4[B-](F)(F)[N+]4=C(c6ccc[nH]6)C=CC4=C5)cc3C2=O)CC1 [NAN-190-2-NB590]							1.22	0.89	1.08	0.92	
COc1ccccc1N1CCN(CCCCN2C(=O)c3ccc(CNC(=O)CCOCCNC(=O)c4ccc(CNC(=O)CCc5ccc6n5[B-](F)(F)[N+]5=C(c7ccc[nH]7)C=CC5=C6)cc4)cc3C2=O)CC1 [NAN-190-3-NB590]							1.56	1.33	1.10	0.86	NanoBRET Fold Response ([3]; P2RY2, tracer 0.1μM): 1.00; NanoBRET Fold Response ([3]; P2RY2, tracer 1μM): 1.01
